The AC50 is the concentration giving half of the maximal activity seen.

Among the data in PubChem BioAssay AID977621 (Broad Institute, 2014) are AC50 values, retold here.

Results filed as inconclusive are left out. Calls of active or inactive are those of the source.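 How the source made its calls: active means Wild-type ribosome reporter drop at least double the humanized mutant ribosome reporter drop, growth loss under a set limit; inconclusive means no clear call, values can overlap the other calls; inactive means the rest.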 Bounds are passed on as bounds.

The assay concerns E. coli wild-type GFP strain growth, fluorescence, 24 h. In words: growth inhibition of wild-type GFP E. coli, dose response, H69 mutant RFP, cherry-pick (AID 977621).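 Further: wild-type GFP and H69 mutant RFP strains grown together 50/50 in each well.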
The mark [1] stands for this setting: E. coli mixed culture, 24 h, measured here: total growth OD600, test 2.

`O=C(Nc1cc(S(=O)(=O)N2CCCCC2)ccc1N1CCCCC1)C1CC1` had an AC50 under setting [1] greater than 100 µM.
Take `CO[C@@H]1CN(C)C(=O)c2cc(NC(=O)C3CCCC3)ccc2OC[C@@H](C)N(C(=O)Nc2ccc(C(F)(F)F)cc2)C[C@H]1C`: the AC50 was > 100 µM (inactive).
On to `Clc1ccccc1C1CC(c2ccccc2)=Nc2ccccc2N1` (stereo unspecified), for which the AC50 was > 100 µM (inactive).
Consider `COc1ccc(C(=O)NCCC2=CCCCC2)cc1[N+](=O)[O-]`, for which, under setting [1], the AC50 is greater than 100 µM.
Take `O=C(COC(=O)C1CC2C=CC1C2)NCCc1ccccc1` (stereo unspecified): the AC50 under setting [1] is greater than 100 µM.
Take `CCNC(=O)C1(C)CCCN(Cc2cccc3ccccc23)C1` (stereo unspecified): the AC50 was > 100 µM (inactive). For the same compound, under setting [1], the AC50 was greater than 100 µM.
Turning to `CO[C@@H]1CN(C)C(=O)c2ccc(NC(=O)c3nc4ccccc4s3)cc2OC[C@@H](C)N(Cc2ccncc2)C[C@@H]1C`, the AC50 is 52 µM (inactive).
On to `COC(=O)c1sc(-c2ccc(C(C)(C)C)cc2)cc1NC(=O)c1ccccc1C(=O)O`, for which the AC50 under setting [1] is greater than 100 µM.
The same measure, in the same setting: in the case of `Cc1nc2ncnn2c(N2CCC(C(=O)NC3CCCC3)CC2)c1Cc1ccccc1` it was greater than 100 µM; in that of `CCC(=O)Nc1nc2c(OC)ccc(OC)c2s1`, greater than 100 µM.
On to `Cc1cc(NC(=O)CSc2nccn2-c2cccc(C)c2C)no1`, for which the AC50 is > 100 µM (inactive). The AC50 under setting [1] is greater than 100 µM.
On to `COc1ccccc1-c1ccc(SCc2cccc(F)c2)nn1`, for which the AC50 was > 100 µM (inactive). Also, the AC50 under setting [1] came out at 20.3 µM.
Consider `COc1cc(C(=O)NCCc2c[nH]c3ccccc23)ccc1OCc1c(C)noc1C`, for which, under setting [1], the AC50 is greater than 100 µM.
On to `CCOC(=O)c1cnc2c(cnn2C)c1NCc1ccc(OC)cc1`, for which the AC50 is > 100 µM (inactive). For the same compound, the AC50 under setting [1] is greater than 100 µM.
In the case of `CCCCNc1ccc2c(c1)OC[C@@H](Cc1ccccc1)NS2(=O)=O`, the AC50 was > 100 µM (inactive). For the same compound, the AC50 under setting [1] was 32.4 µM.
For `Cc1cc(NC(=O)COC(=O)CSCc2ccc(Cl)c(Cl)c2)no1` the same measures were > 100 µM (inactive) and greater than 100 µM.
The compound `Cc1cc(C(=O)OCC(=O)Nc2cccc(S(N)(=O)=O)c2)c2ccccc2n1` showed an AC50 under setting [1] greater than 100 µM.
Take `O=[N+]([O-])c1cncc([N+](=O)[O-])c1Nc1cccc(O)c1`: the AC50 is > 100 µM (inactive).
On to `CC1CCCC(NC(=O)COC(=O)[C@@H]2CC(O)CN2S(=O)(=O)c2ccc3c(c2)OCCO3)C1C` (stereo partly specified), for which, under setting [1], the AC50 is greater than 100 µM.
For the compound `Cc1noc(C)c1NC(=O)Nc1ccc2c(c1)C(=O)N([C@@H](C)CO)C[C@H](C)[C@H](CN(C)C(=O)Nc1ccc3c(c1)OCO3)OCCCC[C@H](C)O2`, the AC50 was > 100 µM (inactive).
`CCCC[n+]1ccn(-c2nc3ccccc3nc2[N-]S(=O)(=O)c2cccs2)c1`: the AC50 is > 100 µM (inactive). This compound gave an AC50 under setting [1] greater than 100 µM.
With `O=C1CSC(c2cccnc2)N1Cc1ccc(Cl)c(Cl)c1` (stereo unspecified), the AC50 was > 100 µM (inactive). Besides, under setting [1], the AC50 was greater than 100 µM.
Turning to `O=C1CCCN1CCCNc1ncnc2c1[nH]c1ccc(Cl)cc12`, under setting [1], the AC50 stood at 40.5 µM.
With `C=CCn1c(-c2sc(-c3ccccc3)nc2C)n[nH]c1=S`, the AC50 was > 100 µM (inactive).
`CCOc1ccc(CCNC(=O)CCn2ccc3cc(S(=O)(=O)N4CCCC4)ccc32)cc1`: the AC50 was > 100 µM (inactive). Moreover, the AC50 under setting [1] stood at 41.4 µM.
On to `COc1ccc(Cn2c(=O)c3[nH]cnc3n(-c3ccc(C)cc3)c2=O)cc1`, for which the AC50 was > 100 µM (inactive).
Take `Cc1ccc(C(=O)C2CCN(CC(=O)Nc3nc(C)cs3)CC2)cc1`: the AC50 was > 100 µM (inactive). Under setting [1], this compound gave an AC50 of 7.66 µM.
Consider `Nc1nc(SCc2ccccc2)c2ncn(Cc3ccccc3)c2n1`, for which the AC50 is > 100 µM (inactive). Under setting [1], this compound yielded an AC50 of 41.2 µM.
In turn, `COC(=O)c1cc2ccccc2n1S(=O)(=O)c1ccccc1` yielded an AC50 under setting [1] greater than 100 µM.
As for `c1ccc(-n2c(SCc3nc(-c4cccs4)no3)nnc2-c2ccco2)cc1`, the AC50 was > 100 µM (inactive). Also, the AC50 under setting [1] was 42.5 µM.
With `CN(Cc1ccccc1)C(=O)c1[nH]cnc1C(=O)NCc1ccccc1`, the AC50 was > 100 µM (inactive). Moreover, the AC50 under setting [1] is greater than 100 µM.
In the case of `CCN(C(=O)COC(=O)CCc1ccccc1)c1ccccc1`, the AC50 was > 100 µM (inactive). The compound also returned an AC50 under setting [1] greater than 100 µM.
For the compound `Cc1ccc(CSCC(=O)N(C)CC(=O)Nc2ccccc2Cl)cc1`, the AC50 was > 100 µM (inactive).
The compound `CCOc1ccc2nc(NC(=O)CSc3nc(SC)ns3)sc2c1` came in with an AC50 under setting [1] greater than 100 µM.
Turning to `c1ccc(CNc2ncnc3sccc23)cc1`, the AC50 was > 100 µM (inactive).
For the compound `c1ccc(CN2CCN(C3CCCSc4ccccc43)CC2)cc1` (stereo unspecified), the AC50 is > 100 µM (inactive). The same compound displayed a half-maximal activity concentration (AC50) under setting [1] of 49.8 µM.
The compound `C=CCn1c(C)cc(C(=O)COC(=O)CNC(=O)c2ccccc2)c1C` displayed an AC50 under setting [1] of 44 µM.
Same read-out and setting: in the case of `CCN(C(=O)COC(=O)c1cn(-c2ccccc2)nc1-c1ccccc1)C1CCS(=O)(=O)C1` (stereo unspecified) it was greater than 100 µM.
Consider `Fc1cccc(Cc2noc(CN3CCCCC3CCc3ccccn3)n2)c1` (stereo unspecified), for which the AC50 is > 100 µM (inactive). Also, under setting [1], the concentration at half-maximal activity (AC50) was greater than 100 µM.
As to `CCOc1ncccc1C(=O)OCC(=O)NCCCc1ccccc1`, the AC50 under setting [1] is greater than 100 µM.
Take `Nc1ccc(C(=O)Nc2ccc3nc(-c4ccncc4)[nH]c3c2)cc1`: the AC50 is > 100 µM (inactive).
As for `CCC(=O)Nc1nc2ccc(NC(=O)c3cc(OC)c(OC)c(OC)c3)cc2s1`, the AC50 is > 100 µM (inactive).
Consider `CN1CCN(c2nc(Nc3ccc(O)cc3)nc3ccccc23)CC1`, for which the AC50 was > 100 µM (inactive).
In the case of `Cc1[nH]nc2c1C(c1ccc(F)cc1)N(Cc1ccccc1)C2=O` (stereo unspecified), the AC50 is > 100 µM (inactive).
In the case of `CC(C)(C)c1ccc(N2C(=O)CSC2c2cccnc2)cc1` (stereo unspecified), under setting [1], the AC50 is greater than 100 µM.
Same read-out and setting: to `Cc1ccc(NC(=O)C[n+]2cc(-c3ccccc3)n3c2CCC3)cc1` belongs greater than 100 µM.
Same read-out and setting: in the case of `Cc1nn(CC(=O)OCCOc2ccc(Br)cc2)c(C)c1[N+](=O)[O-]` it was greater than 100 µM.
On to `COc1ccccc1NC(=O)CN1CCSc2ccccc21`, for which the AC50 was > 100 µM (inactive).
Regarding `CCOc1cccc(-c2cc(-c3n[nH]c(=S)n3CC)c3ccccc3n2)c1`, under setting [1], the AC50 is 38.3 µM.
Regarding `O=C(CCc1nc2ccccc2s1)OCC(=O)c1ccc[nH]1`, the AC50 is > 100 µM (inactive).
On the same count and under the same terms, to `COc1ccc(CNc2ncnc3cc(OC)c(OC)cc23)cc1OC` belongs > 100 µM (inactive); to `Cc1ccc(Nc2cc(C(=O)NCCCN3CCOCC3)c3ccccc3n2)cc1C`, > 100 µM (inactive).
In turn, `CC1=CC(C)(C)N(C(=O)CSc2nnc(C)s2)c2ccc(C)cc21` had an AC50 under setting [1] greater than 100 µM.
For the compound `CCOC(=O)Cc1nnc(NC(=O)CSc2nc3ccccc3[nH]2)s1`, the AC50 was > 100 µM (inactive).
Regarding `O=C(CSc1ccc(-c2cccnc2)nn1)N1CCCc2ccccc21`, the AC50 was > 100 µM (inactive). Moreover, under setting [1], the AC50 was greater than 100 µM.
Under setting [1], `O=C(Nc1ccc(Cl)cn1)c1cc2c(s1)-c1ccccc1OC2` came in with a half-maximal activity concentration (AC50) greater than 100 µM.
As for `Cc1nn2c(NCc3ccccn3)cc(C(C)C)nc2c1-c1ccccc1`, the AC50 is > 100 µM (inactive).
Turning to `CCCc1nc2cc(C)c(Br)c(C)n2c1CC1CCCCC1`, the AC50 is > 100 µM (inactive). Also, under setting [1], the AC50 came to 48.9 µM.
